Assays:
windgrass [1] = assay: Test C postemergence; format: in vivo, Apera spica-venti; settings: 250 g ai/ha, scale 0 to 100 (0 no effect, 100 complete control)
windgrass [2] = assay: Test C postemergence; format: in vivo, Apera spica-venti; settings: 125 g ai/ha, scale 0 to 100, 0 no effect, 100 complete control
windgrass [3] = assay: Test C postemergence; format: in vivo, Apera spica-venti; settings: 62 g ai/ha, scale 0 to 100
bermudagrass = assay: Test C preemergence; format: in vivo, Cynodon dactylon
Excerpt: (§1) Seeds of plant species selected from blackgrass (Alopecurus myosuroides), ryegrass, Italian (Italian ryegrass, Lolium multiflorum), wheat (winter wheat, Triticum aestivum), galium (catchweed bedstraw, Galium aparine), corn (Zea mays), crabgrass, large (large crabgrass, Digitaria sanguinalis), foxtail, giant (giant foxtail, Setaria faberii), johnsongrass (Sorghum halepense), lambsquarters (Chenopodium album), morningglory (Ipomoea coccinea), nutsedge, yellow (yellow nutsedge, Cyperus esculentus), pigweed (redroot pigweed, Amaranthus retroflexus), ragweed (common ragweed, Ambrosia elation), soybean (Glycine max), barnyardgrass (Echinochloa crus-galli), oilseed rape (Brassica napus), waterhemp (common waterhemp, Amaranthus rudis), oat, wild (wild oat, Avena fatua), kochia (Kochia scoparia), Surinam grass (Brachiaria decumbens), foxtail, green (green foxtail, Setaria viridis), goosegrass (Eleusine indica), bromegrass, downy (downy bromegrass, Bromus tectorum), nightshade (eastern black nightshade, Solanum ptycanthum), cocklebur (common cocklebur, Xanthium strumarium), cupgrass, woolly (woolly cupgrass, Eriochloa villosa), bermudagrass (Cynodon dactylon), sunflower, (common oilseed sunflower, Helianthus annuus), Russian thistle (Salsola kali), and velvetleaf (Abutilon theophrasti) were planted into a blend of loam soil and sand and treated preemergence with test chemicals formulated in a non-phytotoxic solvent mixture which included a surfactant.
(§2) At the same time, plants selected from these crop and weed species and also chickweed (common chickweed, Stellaria media), canarygrass (littleseed canarygrass, Phalaris minor), and deadnettle (henbit deadnettle, Lamium amplexicaule), were planted in pots containing Redi-Earth® planting medium (Scotts Company, 14111 Scottslawn Road, Marysville, Ohio 43041) comprising spaghnum peat moss, vermiculite, wetting agent and starter nutrients and treated with postemergence applications of test chemicals formulated in the same manner. Plants ranged in height from 2 to 18 cm (1- to 4-leaf stage) for postemergence treatments. Treated plants and controls were maintained in a greenhouse for 13 to 15 days, after which time all species were compared to controls and visually evaluated. Plant response ratings, summarized in Table C, are based on a scale of 0 to 100 where 0 is no effect and 100 is complete control. A dash (-) response means no test result.

cupgrass, woolly = assay: Test C preemergence; format: in vivo, Eriochloa villosa
Excerpt: as §1, §2

oat, wild = assay: Test C preemergence; format: in vivo, Avena fatua
Excerpt: as §1, §2

[4] = preemergence, 31 g ai/ha, scale 0 to 100 (0 no effect, 100 complete control), 13 to 15 days
[5] = preemergence, 62 g ai/ha, 13 to 15 days, scale 0 to 100, 0 = no effect, 100 = complete control
[6] = preemergence, 125 g ai/ha, scale 0 to 100, 0 is no effect, 100 is complete control

CCc1cc(C(=O)NCC(F)(F)F)nn1Cc1cccc(OC(F)(F)F)c1 [Compound 20]
Plant response rating, Windgrass (windgrass [1]): 45 | Plant response rating, Windgrass (windgrass [2]): 40 | Windgrass plant response rating (windgrass [3]): 10

CCCNC(=O)c1cc(CC)n(Cc2cccc(OC(F)(F)F)c2)n1 [Compound 27]
Plant response rating, Windgrass (windgrass [1]): 45 | Plant response rating, Windgrass (windgrass [2]): 40 | Windgrass plant response rating (windgrass [3]): 20

CCc1cc(C(=O)NOC(C)C)nn1Cc1cccc(OC(F)(F)F)c1 [Compound 70]
Plant response rating (scale of 0 to 100), Bermudagrass (bermudagrass; Preemergence, 250 g ai/ha): 100 | Bermudagrass plant response rating (bermudagrass; [4]): 98 | Plant response rating, Bermudagrass (bermudagrass; [5]): 98 | Bermudagrass plant response rating (bermudagrass; [6]): 100 | Plant response rating, Windgrass (windgrass [1]): 50 | Plant response rating, Windgrass (windgrass [2]): 50 | Plant response rating (scale of 0 to 100), Cupgrass, Woolly (cupgrass, woolly; Preemergence, 250 g ai/ha): 90 | Cupgrass, Woolly plant response rating (cupgrass, woolly; [4]): 40 | Plant response rating, Cupgrass, Woolly (cupgrass, woolly; [5]): 65 | Cupgrass, Woolly plant response rating (cupgrass, woolly; [6]): 85 | Plant response rating (scale of 0 to 100), Oat, Wild (oat, wild; Preemergence, 250 g ai/ha): 65 | Oat, Wild plant response rating (oat, wild; [4]): 5 | Plant response rating, Oat, Wild (oat, wild; [5]): 10 | Oat, Wild plant response rating (oat, wild; [6]): 50 | Windgrass plant response rating (windgrass [3]): 25

Reference: US20150105252A1, “SUBSTITUTED PYRAZOLES AS HERBICIDES” (E I DU PONT DE NEMOURS AND COMPANY, priority 2013, published 2015)
